The values below come from ChEMBL document CHEMBL3046558, “Effects of inositol 1,2,6-triphosphate on human liver cancer SMMC-7721 cells” (2012).

The subject of experiment [1] is SMMC-7721. Kind of experiment: Inhibition of AFP expression in cytoplasm of Homo sapiens (human) SMMC7721 cells […] after 48 hr by immunohistochemistry analysis. It counts as functional, cell-based.
In experiment [2] the test system is SMMC-7721. As to the kind of experiment: Antiproliferative activity against Homo sapiens (human) SMMC7721 cells at 300 ug/ml after 72 hr by MTT assay. The format is functional. On the technique in general: Tetrazolium dyes change colour on reduction, which living cells bring about.
Experiment [3] concerns SMMC-7721. Kind of experiment: Antiproliferative activity against Homo sapiens (human) SMMC7721 cells at 700 ug/ml after 72 hr by MTT assay. The format is functional.
Experiment [4] concerns SMMC-7721. Kind of experiment: Antiproliferative activity against Homo sapiens (human) SMMC7721 cells at 500 ug/ml after 72 hr by MTT assay. The format is functional.
For experiment [5], the system named is SMMC-7721. As to the kind of experiment: Cell cycle arrest in Homo sapiens (human) SMMC7721 cells assessed as accumulation at G2/M phase at 500 ug/ml after 3 days using PI staining by flow cytometry (Rvb =11.5 %). The format is functional. On the technique in general: Flow cytometry measures light scatter and fluorescence of single cells or particles in a stream.

In experiment [6] the test system is SMMC-7721. Kind of experiment: Cell cycle arrest in Homo sapiens (human) SMMC7721 cells assessed as accumulation at S phase at 100 ug/ml after 3 days using PI staining by flow cytometry (Rvb =49.5 %). The format is functional.
The subject of experiment [7] is SMMC-7721. Kind of experiment: Cell cycle arrest in Homo sapiens (human) SMMC7721 cells assessed as accumulation at G2/M phase at 100 ug/ml after 3 days using PI staining by flow cytometry (Rvb =11.5 %). It counts as functional.
In experiment [8] the test system is SMMC-7721. Kind of experiment: Cell cycle arrest in Homo sapiens (human) SMMC7721 cells assessed as accumulation at G0/G1 phase at 500 ug/ml after 3 days using PI staining by flow cytometry (Rvb =39 %). The format is functional.
The subject of experiment [9] is SMMC-7721. Kind of experiment: Cell cycle arrest in Homo sapiens (human) SMMC7721 cells assessed as accumulation at S phase at 300 ug/ml after 3 days using PI staining by flow cytometry (Rvb =49.5 %). The format is functional.
Experiment [10] relates to SMMC-7721. Kind of experiment: Effect on morphology of Homo sapiens (human) SMMC7721 cells assessed as disruption of cell structure at 300 ug/ml after 48 hr using HE staining by optical microscopy. The format is functional, cell-based.
Experiment [11] concerns SMMC-7721. Kind of experiment: Cell cycle arrest in Homo sapiens (human) SMMC7721 cells assessed as accumulation at G2/M phase at 300 ug/ml after 3 days using PI staining by flow cytometry (Rvb =11.5 %). The format is functional.
Experiment [12] relates to SMMC-7721. As to the kind of experiment: Cell cycle arrest in Homo sapiens (human) SMMC7721 cells assessed as accumulation at G0/G1 phase at 300 ug/ml after 3 days using PI staining by flow cytometry (Rvb =39 %). It counts as functional.
In experiment [13] the test system is SMMC-7721. As to the kind of experiment: Cell cycle arrest in Homo sapiens (human) SMMC7721 cells assessed as accumulation at S phase at 500 ug/ml after 3 days using PI staining by flow cytometry (Rvb =49.5 %). The format is functional.
For experiment [14], the system named is SMMC-7721. Kind of experiment: Cell cycle arrest in Homo sapiens (human) SMMC7721 cells assessed as accumulation at G0/G1 phase at 100 ug/ml after 3 days using PI staining by flow cytometry (Rvb =39 %). It counts as functional.
The subject of experiment [15] is SMMC-7721. As to the kind of experiment: Antiproliferative activity against Homo sapiens (human) SMMC7721 cells at 100 ug/ml after 72 hr by MTT assay. It counts as functional.
Experiment [16] deals with SMMC-7721. Kind of experiment: Effect on morphology of Homo sapiens (human) SMMC7721 cells assessed as cell detachment from matrix at 300 ug/ml after 48 hr using HE staining by optical microscopy. The format is functional, cell-based.
Experiment [17] concerns SMMC-7721. Kind of experiment: Inhibition of AFP expression in nucleolus of Homo sapiens (human) SMMC7721 cells […] after 48 hr by immunohistochemistry analysis. The format is functional, cell-based.
Experiment [18] relates to SMMC-7721. As to the kind of experiment: Antiproliferative activity against Homo sapiens (human) SMMC7721 cells after 1 to 3 days by MTT assay. The format is functional, cell-based.
Experiment [19] deals with SMMC-7721. Kind of experiment: Antiproliferative activity against Homo sapiens (human) SMMC7721 cells at 50 to 700 ug/ml by MTT assay. It counts as functional, cell-based. Conditions: TDE = time-dependent effect.
The test system of experiment [20] is SMMC-7721. Kind of experiment: Antiproliferative activity against Homo sapiens (human) SMMC7721 cells at 50 ug/ml after 72 hr by MTT assay. It counts as functional.
Experiment [21] concerns SMMC-7721. Kind of experiment: Inhibition of PCNA expression in nucleolus of Homo sapiens (human) SMMC7721 cells […] after 48 hr by immunohistochemistry analysis. The format is functional, cell-based.

The source made the active and inactive calls. The calls are words filed in the database; no cut-off is given here.

In the case of `O=P(O)(O)O[C@@H]1[C@H](OP(=O)(O)O)[C@H](O)[C@@H](O)[C@H](O)[C@H]1OP(=O)(O)O` [ATRINOSITOL], the inhibition entry in the experiment with SMMC-7721 [1], in the experiment on SMMC-7721 [17] and in the experiment with SMMC-7721 [21] was “Dose-dependent effect” in each case. Besides, the Activity with SMMC-7721 [2] is given as 59.52%; in the experiment with SMMC-7721 [3] it was 79.08%; with SMMC-7721 [4], 67.86%; in the experiment with SMMC-7721 [5], 19.9%; in the experiment with SMMC-7721 [6] it was 39%; in the experiment on SMMC-7721 [7], 21.6%. Moreover, the Activity is reported as 68.1% in the experiment on SMMC-7721 [8]; 30.5% in the experiment on SMMC-7721 [9]; 10.6% in the experiment on SMMC-7721 [11]; 58.9% with SMMC-7721 [12]; 12.3% in the experiment with SMMC-7721 [13]; 39.4% with SMMC-7721 [14]. Moreover, the Activity was 50.85% with SMMC-7721 [15], “Dose-dependent effect” in the experiment on SMMC-7721 [18], “tde” with SMMC-7721 [19] and 34.87% in the experiment on SMMC-7721 [20]. The outcome with SMMC-7721 [10] and in the experiment on SMMC-7721 [16] was Active.
